Each block holds one molecule with its values, some of them ahead of it.
Key:
tau [1] = assay: ^18F-T807 autoradiography and competition on large frozen AD brain sections; assay type: binding, human; design: Total Binding / NSP Binding: unit not given here; settings: vs Unlabelled T807
Method: (§1) Adjacent sections were used for autoradiography with ^11C-THK5351, ^11C-PBB3, and ^18F-T807. The frozen sections were allowed to reach room temperature, incubated for 30 minutes at room temperature with ^11C-THK5351 (0.4–0.56 nM; specific activity 356–532 GBq/μmol) or ^11C-PBB3 (0.25–0.34 nM; specific activity 442–794 GBq/μmol) or for 55 minutes at room temperature with ^18F-T807 (0.04 nM; specific activity 281 GBq/μmol). We used 10 μM unlabeled THK5351, 10 μM unlabeled PBB3, and 10 μM unlabeled T807 to determine the extent of nonspecific binding for each tracer. The sections were rinsed three times for 5 minutes each with cold binding buffer, followed by a quick dip in cold distilled water. The sections were dried and exposed for 1 h (for ^11C-THK5351 and ^11C-PBB3) or for 3 h (^18 F-T807) on a phosphor imaging plate and then read using the BAS-2500 phosphor imager.
(§2) For all the autoradiography studies, the regions of interest were drawn manually on the autoradiogram using multigauge software and were used for the semiquantitative analyses. Photostimulated luminescence per square millimeter (PSL/mm^2) was transformed to picomoles per cubic millimeter using a transformation factor that took into account the resolution of the image, the pixel value for the concentration of ligand, and the thickness of the sections: (PSL/mm^2 value)/([pixel value per pmol] × [(resolution/1000)^2] × [cryosection thickness]/1000).

tau [2] = assay: ^11C-THK5351 autoradiography and competition on large frozen AD brain sections; assay type: binding, human; design: Total Binding / NSP Binding: unit not given here
Method: as §1, §2

[3] = AD1, Basal ganglia, vs Unlabelled T807
[4] = AD1, Basal ganglia, vs Unlabelled THK5351
[5] = AD1, Frontal cortex, vs Unlabelled T807
[6] = AD1, Frontal cortex, vs Unlabelled THK5351
[7] = AD1, Insula, vs Unlabelled T807
[8] = AD1, Insula, vs Unlabelled THK5351
[9] = AD1, Temporal cortex, vs Unlabelled T807
[10] = AD1, Temporal cortex, vs Unlabelled THK5351
[11] = AD2, Basal ganglia, vs Unlabelled T807
[12] = AD2, Basal ganglia, vs Unlabelled THK5351
[13] = AD2, Frontal cortex, vs Unlabelled T807
[14] = AD2, Frontal cortex, vs Unlabelled THK5351
[15] = AD2, Insula, vs Unlabelled T807
[16] = AD2, Insula, vs Unlabelled THK5351
[17] = AD2, Temporal cortex, vs Unlabelled T807
[18] = AD2, Temporal cortex, vs Unlabelled THK5351
[19] = AD3, Basal ganglia, vs Unlabelled T807
[20] = AD3, Basal ganglia, vs Unlabelled THK5351
[21] = AD3, Frontal cortex, vs Unlabelled T807
[22] = AD3, Frontal cortex, vs Unlabelled THK5351
[23] = AD3, Insula, vs Unlabelled T807
[24] = AD3, Insula, vs Unlabelled THK5351
[25] = AD3, Temporal cortex, vs Unlabelled T807
[26] = AD3, Temporal cortex, vs Unlabelled THK5351

- % of specific binding (tau [1]; AD1, Basal ganglia): 24%
- NSP Binding (tau [1]; AD1, Basal ganglia): 1895
- Specific Binding (tau [1]; AD1, Basal ganglia): 599
- Total Binding (tau [1]; AD1, Basal ganglia): 2495
- % of specific binding (tau [1]; AD1, Frontal cortex): 41%
- NSP Binding (tau [1]; AD1, Frontal cortex): 2028
- Specific Binding (tau [1]; AD1, Frontal cortex): 1388
- Total Binding (tau [1]; AD1, Frontal cortex): 3416
- % of specific binding (tau [1]; AD1, Insula): 33%
- NSP Binding (tau [1]; AD1, Insula): 1851
- Specific Binding (tau [1]; AD1, Insula): 893
- Total Binding (tau [1]; AD1, Insula): 2744
- % of specific binding (tau [1]; AD1, Temporal cortex): 28%
- NSP Binding (tau [1]; AD1, Temporal cortex): 2018
- Specific Binding (tau [1]; AD1, Temporal cortex): 784
- Total Binding (tau [1]; AD1, Temporal cortex): 2802
- % of specific binding (tau [1]; AD2, Basal ganglia): 25%
- NSP Binding (tau [1]; AD2, Basal ganglia): 1713
- Specific Binding (tau [1]; AD2, Basal ganglia): 567
- Total Binding (tau [1]; AD2, Basal ganglia): 2280
- % of specific binding (tau [1]; AD2, Frontal cortex): 24%
- NSP Binding (tau [1]; AD2, Frontal cortex): 1901
- Specific Binding (tau [1]; AD2, Frontal cortex): 586
- Total Binding (tau [1]; AD2, Frontal cortex): 2488
- Total Binding (tau [1]; AD2, Insula): 2469
- % of specific binding (tau [1]; AD2, Temporal cortex): 46%
- NSP Binding (tau [1]; AD2, Temporal cortex): 1801
- Specific Binding (tau [1]; AD2, Temporal cortex): 1526
- Total Binding (tau [1]; AD2, Temporal cortex): 3327
- % of specific binding (tau [1]; AD3, Basal ganglia): 31%
- NSP Binding (tau [1]; AD3, Basal ganglia): 1639
- Specific Binding (tau [1]; AD3, Basal ganglia): 733
- Total Binding (tau [1]; AD3, Basal ganglia): 2372
- % of specific binding (tau [1]; AD3, Frontal cortex): 40%
- NSP Binding (tau [1]; AD3, Frontal cortex): 1916
- Specific Binding (tau [1]; AD3, Frontal cortex): 1296
- Total Binding (tau [1]; AD3, Frontal cortex): 3212
- % of specific binding (tau [1]; AD3, Insula): 22%
- NSP Binding (tau [1]; AD3, Insula): 1836
- Specific Binding (tau [1]; AD3, Insula): 509
- Total Binding (tau [1]; AD3, Insula): 2346
- % of specific binding (tau [1]; AD3, Temporal cortex): 16%
- NSP Binding (tau [1]; AD3, Temporal cortex): 1975
- Specific Binding (tau [1]; AD3, Temporal cortex): 374
- Total Binding (tau [1]; AD3, Temporal cortex): 2349
SMILES: [18F]c1ccc(-c2ccc3c(c2)[nH]c2ccncc23)cn1 [^18F-T807, 7-(6-[^18F]fluoropyridin-3yl)-5H-pyrido(4,3-b)indole]

- % of specific binding (tau [2]; [3]): 41%
- NSP Binding (tau [2]; [3]): 10866
- Specific Binding (tau [2]; [3]): 7578
- Total Binding (tau [2]; [3]): 18444
- % of specific binding (tau [2]; [4]): 40%
- NSP Binding (tau [2]; [4]): 7577
- Specific Binding (tau [2]; [4]): 5118
- Total Binding (tau [2]; [4]): 12694
- % of specific binding (tau [2]; [5]): 24%
- NSP Binding (tau [2]; [5]): 15579
- Specific Binding (tau [2]; [5]): 4789
- Total Binding (tau [2]; [5]): 20368
- % of specific binding (tau [2]; [6]): 40%
- NSP Binding (tau [2]; [6]): 8920
- Specific Binding (tau [2]; [6]): 5917
- Total Binding (tau [2]; [6]): 14837
- % of specific binding (tau [2]; [7]): 25%
- NSP Binding (tau [2]; [7]): 13255
- Specific Binding (tau [2]; [7]): 4421
- Total Binding (tau [2]; [7]): 17677
- % of specific binding (tau [2]; [8]): 33%
- NSP Binding (tau [2]; [8]): 8376
- Specific Binding (tau [2]; [8]): 4085
- Total Binding (tau [2]; [8]): 12461
- % of specific binding (tau [2]; [9]): 14%
- NSP Binding (tau [2]; [9]): 14662
- Specific Binding (tau [2]; [9]): 2328
- Total Binding (tau [2]; [9]): 16990
- % of specific binding (tau [2]; [10]): 29%
- NSP Binding (tau [2]; [10]): 8202
- Specific Binding (tau [2]; [10]): 3386
- Total Binding (tau [2]; [10]): 11587
- % of specific binding (tau [2]; [11]): 38%
- NSP Binding (tau [2]; [11]): 11830
- Specific Binding (tau [2]; [11]): 7177
- Total Binding (tau [2]; [11]): 19008
- % of specific binding (tau [2]; [12]): 68%
- NSP Binding (tau [2]; [12]): 6390
- Specific Binding (tau [2]; [12]): 13566
- Total Binding (tau [2]; [12]): 19956
- % of specific binding (tau [2]; [13]): 18%
- NSP Binding (tau [2]; [13]): 14824
- Specific Binding (tau [2]; [13]): 3344
- Total Binding (tau [2]; [13]): 18167
- % of specific binding (tau [2]; [14]): 69%
- NSP Binding (tau [2]; [14]): 6755
- Specific Binding (tau [2]; [14]): 15381
- Total Binding (tau [2]; [14]): 22136
- % of specific binding (tau [2]; [15]): 28%
- NSP Binding (tau [2]; [15]): 13363
- Specific Binding (tau [2]; [15]): 5076
- Total Binding (tau [2]; [15]): 18439
- % of specific binding (tau [2]; [16]): 59%
- NSP Binding (tau [2]; [16]): 6886
- Specific Binding (tau [2]; [16]): 9948
- Total Binding (tau [2]; [16]): 16834
- % of specific binding (tau [2]; [17]): 39%
- NSP Binding (tau [2]; [17]): 13589
- Specific Binding (tau [2]; [17]): 8683
- Total Binding (tau [2]; [17]): 22271
- % of specific binding (tau [2]; [18]): 59%
- NSP Binding (tau [2]; [18]): 6673
- Specific Binding (tau [2]; [18]): 9437
- Total Binding (tau [2]; [18]): 16110
- % of specific binding (tau [2]; [19]): 47%
- NSP Binding (tau [2]; [19]): 10872
- Specific Binding (tau [2]; [19]): 9821
- Total Binding (tau [2]; [19]): 20693
- % of specific binding (tau [2]; [20]): 38%
- NSP Binding (tau [2]; [20]): 6733
- Specific Binding (tau [2]; [20]): 4207
- Total Binding (tau [2]; [20]): 10939
- % of specific binding (tau [2]; [21]): 38%
- NSP Binding (tau [2]; [21]): 14792
- Specific Binding (tau [2]; [21]): 8959
- Total Binding (tau [2]; [21]): 23751
- % of specific binding (tau [2]; [22]): 48%
- NSP Binding (tau [2]; [22]): 7079
- Specific Binding (tau [2]; [22]): 6431
- Total Binding (tau [2]; [22]): 13509
- % of specific binding (tau [2]; [23]): 29%
- NSP Binding (tau [2]; [23]): 13574
- Specific Binding (tau [2]; [23]): 5447
- Total Binding (tau [2]; [23]): 19021
- % of specific binding (tau [2]; [24]): 37%
- NSP Binding (tau [2]; [24]): 6903
- Specific Binding (tau [2]; [24]): 3972
- Total Binding (tau [2]; [24]): 10875
- % of specific binding (tau [2]; [25]): 34%
- NSP Binding (tau [2]; [25]): 12673
- Specific Binding (tau [2]; [25]): 6479
- Total Binding (tau [2]; [25]): 19153
- % of specific binding (tau [2]; [26]): 36%
- NSP Binding (tau [2]; [26]): 6717
- Specific Binding (tau [2]; [26]): 3813
- Total Binding (tau [2]; [26]): 10529
SMILES: [11CH3]Nc1ccc(-c2ccc3cc(OC[C@H](O)CF)ccc3n2)cn1 [^11C-THK5351, (S)-1-fluoro-3-(2-(6-([^11C]methylamino)pyridin-3-yl)quinolin-6-yloxy)propan-2-ol]

Reference: paper PMC5725799, “Comparative binding properties of the tau PET tracers THK5117, THK5351, PBB3, and T807 in postmortem Alzheimer brains” (Alzheimer's Research & Therapy, 2017)
